This note sets out measurements from patent US20250171417A1, “HETEROCYCLIC DERIVATIVE, AND COMPOSITION AND PHARMACEUTICAL USE THEREOF” (Xizang Haisco Pharmaceutical Co., Ltd., priority 2021, published 2025).

Like-named read-outs stand apart in the source and are kept apart here.

The assay concerns Prostate cancer cells 22RV1. Kind of assay: Experiment on inhibiting 22RV1 cell proliferation (CellTiter-Glo, 7 days). It counts as cell-based. Particulars: Homo sapiens, 168 h, 22RV1 cells, 7 days incubation, read-out: IC50 values for inhibition of 22RVI cells. On the procedure:
Prostate cancer cells 22RV1 were purchased from ATCC, the cell medium was RPMI 1640+10% FBS, and the cells were cultured in an incubator at 37° C. under 5% CO2. On day 1, the cells in the exponential growth phase were collected. With a 1% css-FBS phenol red-free medium, the cell suspension was adjusted to a corresponding concentration, plated at 2000 cells/well and incubated overnight. On day 2, compounds at different concentrations were added, and the plate was placed in the incubator and incubated for further 7 days. After the incubation was completed, according to operation instructions for a CellTiter-Glo kit (Promega, G7573), 50 μL of CellTiter-Glo reagents, which were already pre-melted and equilibrated to room temperature, were added to each well, and the mixtures were uniformly mixed for 2 min using a microplate shaker. The plate was placed at room temperature for 10 min. and then […] signal values were measured using a microplate reader (PHERAstar FSX). The results were processed according to formula (I), the inhibition rate of the compound at different concentrations was calculated, and the IC50 value of the compound with an inhibition rate of 50% was calculated using origin9.2 software with DoseResp function, wherein RLUcompound was the readout of the treated group, and RLUcontrol was the average value of the DMSO vehicle control group.

The mark [1] stands for this setting: cells without a unit of their own (μM).
Setting [2] is: cells with nM printed beside the value.

`CC(C)(C(=O)Nc1ccc(C(F)(F)F)c(Cl)c1)n1cc(C#CC2CN(c3ccc4c(c3)C(=O)N(C3CCC(=O)NC3=O)C4=O)C2)cn1` (stereo not drawn) [Compound 17, N-(3-chloro-4-(trifluoromethyl)phenyl)-2-(4-((1-(2-(2,6-dioxopiperidin-3-yl)-1,3-dioxoisoindolin-5-yl)azetidin-3-yl)ethynyl)-1H-pyrazol-1-yl)-2-methylpropanamide]: the IC50 under setting [1] is < 1 µM.

Consider `COc1cc(NC(=O)C(C)(C)n2cc(C#CC3CN(c4ccc5c(c4)C(=O)N(C4CCC(=O)NC4=O)C5=O)C3)cn2)ccc1C#N` (stereo not drawn) [Compound 23, N-(4-cyano-3-methoxyphenyl)-2-(4-((1-(2-(2,6-dioxopiperidin-3-yl)-1,3-dioxoisoindolin-5-yl)azetidin-3-yl)ethynyl)-1H-pyrazol-1-yl)-2-methylpropanamide], for which the 50% inhibitory concentration (IC50) under setting [1] was < 1 µM. With `CC(C)(C(=O)Nc1ccc(C#N)cc1F)n1cc(C#CC2CN(c3ccc4c(c3)C(=O)N(C3CCC(=O)NC3=O)C4=O)C2)cn1` (stereo not drawn) [Compound 27, N-(4-cyano-2-fluorophenyl)-2-(4-((1-(2-(2,6-dioxopiperidin-3-yl)-1,3-dioxoisoindolin-5-yl)azetidin-3-yl)ethynyl)-1H-pyrazol-1-yl)-2-methylpropanamide], the IC50 under setting [1] was < 1 µM. Regarding `CC(C)(C(=O)Nc1ccc(C#N)cc1Br)n1cc(C#CC2CN(c3ccc4c(c3)C(=O)N(C3CCC(=O)NC3=O)C4=O)C2)cn1` (stereo not drawn) [Compound 82, N-(2-bromo-4-cyanophenyl)-2-(4-((1-(2-(2,6-dioxopiperidin-3-yl)-1,3-dioxoisoindolin-5-yl)azetidin-3-yl)ethynyl)-1H-pyrazol-1-yl)-2-methylpropanamide], the IC50 under setting [2] was < 0.05 µM. In the case of `CC#Cc1cc(C(F)(F)F)ccc1NC(=O)C(C)(C)n1ncc(C#CC2CN(c3ccc4c(c3)C(=O)N(C3CCC(=O)NC3=O)C4=O)C2)c1C` (stereo not drawn) [Compound 194, 2-(4-((1-(2-(2,6-dioxopiperidin-3-yl)-1,3-dioxoisoindolin-5-yl)azetidin-3-yl)ethynyl)-5-methyl-1H-pyrazol-1-yl)-2-methyl-N-(2-(prop-1-yn-1-yl)-4-(trifluoromethyl)phenyl) propanamide], under setting [2], the IC50 was < 0.1 µM. Take `CC(C)(C(=O)Nc1ccc(C#N)c2c1C1CCC2C1)n1cc(C#CC2CN(c3ccc4c(c3)C(=O)N(C3CCC(=O)NC3=O)C4=O)C2)cn1` (stereo not drawn) [Compound 165, N-(8-cyano-1,2,3,4-tetrahydro-1,4-methanonaphthalen-5-yl)-2-(4-((1-(2-(2,6-dioxopiperidin-3-yl)-1,3-dioxoisoindolin-5-yl)azetidin-3-yl)ethynyl)-1H-pyrazol-1-yl)-2-methylpropanamide]: the IC50 under setting [2] was < 0.1 µM.

`O=C1CCC(N2C(=O)c3ccc(N4CCC5(CC4)CC(CN4CCC(c6cnn(C7(C(=O)Nc8ccc(C(F)(F)F)cc8Cl)CCC7)c6)CC4)C5)cc3C2=O)C(=O)N1` (stereo not drawn) [Compound 85, N-(2-chloro-4-(trifluoromethyl)phenyl)-1 (4-(1-((7-(2-(2,6-dioxopiperidin-3-yl)-1,3-dioxoisoindolin-5-yl)-7-azaspiro[3.5]nonan-2-yl)methyl)piperidin-4-yl)-1H-pyrazol-1-yl)cyclobutane-1-carboxamide]: the IC50 under setting [1] was < 1 µM. For the compound `O=C1CCC(N2C(=O)c3ccc(N4CC(N5Cc6cn(C7(C(=O)Nc8ccc(C(F)(F)F)cc8Cl)CCC7)nc6C5)C4)cc3C2=O)C(=O)N1` (stereo not drawn) [Compound 197, N-(2-chloro-4-(trifluoromethyl)phenyl)-1-(5-(1-(2-(2,6-dioxopiperidin-3-yl)-1,3-dioxoisoindolin-5-yl)azetidin-3-yl)-5,6-dihydropyrrolo[3,4-c]pyrazol-2 (4H)-yl)cyclobutane-1-carboxamide], the IC50 under setting [1] is < 1 µM. Still for that read-out and setting: the figure for `Cc1ccc(NC(=O)C(C)(C)n2cc(C#CC3CN(c4ccc5c(c4)C(=O)N(C4CCC(=O)NC4=O)C5=O)C3)cn2)cc1Cl` (stereo not drawn) [Compound 18, N-(3-chloro-4-methylphenyl)-2-(4-((1-(2-(2,6-dioxopiperidin-3-yl)-1,3-dioxoisoindolin-5-yl)azetidin-3-yl)ethynyl)-1H-pyrazol-1-yl)-2-methylpropanamide] is < 1 µM. Regarding `CCC(CC)(C(=O)Nc1ccc(C#N)c(C(F)(F)F)c1)n1cc(C#CC2CN(c3ccc4c(c3)C(=O)N(C3CCC(=O)NC3=O)C4=O)C2)cn1` (stereo not drawn) [Compound 41, N-(4-cyano-3-(trifluoromethyl)phenyl)-2-(4-((1-(2-(2,6-dioxopiperidin-3-yl)-1,3-dioxoisoindolin-5-yl)azetidin-3-yl)ethynyl)-1H-pyrazol-1-yl)-2-ethylbutanamide], the half-maximal inhibitory concentration (IC50) under setting [2] is < 0.05 µM.

Turning to `N#Cc1ccc(NC(=O)C2(n3cc(C#CC4CN(c5ccc6c(c5)C(=O)N(C5CCC(=O)NC5=O)C6=O)C4)cn3)CCC2)cc1N1CCCC1` (stereo not drawn) [Compound 50, N-(4-cyano-3-(pyrrolidin-1-yl)phenyl)-1-(4-((1-(2-(2,6-dioxopiperidin-3-yl)-1,3-dioxoisoindolin-5-yl)azetidin-3-yl)ethynyl)-1H-pyrazol-1-yl)cyclobutane-1-carboxamide], the IC50 under setting [2] is < 0.1 µM. Regarding `CC(C)(C(=O)Nc1ccc(C#N)cc1C(F)(F)F)n1cc(C#CC2CN(c3ccc4c(c3)C(=O)N(C3CCC(=O)NC3=O)C4=O)C2)cn1` (stereo not drawn) [Compound 44, N-(4-cyano-2-(trifluoromethyl)phenyl)-2-(4-((1-(2-(2,6-dioxopiperidin-3-yl)-1,3-dioxoisoindolin-5-yl)azetidin-3-yl)ethynyl)-1H-pyrazol-1-yl)-2-methylpropanamide], the IC50 under setting [1] was < 1 µM. As for `[2H]C([2H])([2H])C(C(=O)Nc1ccc(C(F)(F)F)cc1C1CC1)(n1cc(C#CC2CN(c3ccc4c(c3)C(=O)N(C3CCC(=O)NC3=O)C4=O)C2)cn1)C([2H])([2H])[2H]` (stereo not drawn) [Compound 187, N-(2-cyclopropyl-4-(trifluoromethyl)phenyl)-2-(4-((1-(2-(2,6-dioxopiperidin-3-yl)-1,3-dioxoisoindolin-5-yl)azetidin-3-yl)ethynyl)-1H-pyrazol-1-yl)-2,2-(dimethyl-d6) acetamide], under setting [2], the IC50 is < 0.1 µM.

Take `CC(C)(C(=O)Nc1ccc(C#N)c(C(F)(F)F)c1)n1cc(C#CC2CN(c3cc4c(cc3F)C(=O)N(C3CCC(=O)NC3=O)C4=O)C2)cn1` (stereo not drawn) [Compound 3]: the IC50 under setting [1] is < 1 µM. Take `CC(C)(C(=O)Nc1ccc(C(F)(F)F)cc1-n1cccn1)n1cc(C#CC2CN(c3ccc4c(c3)C(=O)N(C3CCC(=O)NC3=O)C4=O)C2)cn1` (stereo not drawn) [Compound 51, N-(2-(1H-pyrazol-1-yl)-4-(trifluoromethyl)phenyl)-2-(4-((1-(2-(2,6-dioxopiperidin-3-yl)-1,3-dioxoisoindolin-5-yl)azetidin-3-yl)ethynyl)-1H-pyrazol-1-yl)-2-methylpropanamide]: the IC50 under setting [2] was < 0.05 µM. With `CN(C)c1cc(C(F)(F)F)ccc1NC(=O)C(C)(C)n1cc(C#CC2CN(c3ccc4c(c3)C(=O)N(C3CCC(=O)NC3=O)C4=O)C2)cn1` (stereo not drawn) [Compound 182, N-(2-(dimethylamino)-4-(trifluoromethyl)phenyl)-2-(4-((1-(2-(2,6-dioxopiperidin-3-yl)-1,3-dioxoisoindolin-5-yl)azetidin-3-yl)ethynyl)-1H-pyrazol-1-yl)-2-methylpropanamide], the half-maximal inhibitory concentration (IC50) under setting [2] was < 0.1 µM. Same read-out and setting: the figure for `CC(C)(C(=O)Nc1ccc(C#N)cc1-n1cccn1)n1cc(C#CC2CN(c3ccc4c(c3)C(=O)N(C3CCC(=O)NC3=O)C4=O)C2)cn1` (stereo not drawn) [Compound 172, N-(4-cyano-2-(1H-pyrazol-1-yl)phenyl)-2-(4-((1-(2-(2,6-dioxopiperidin-3-yl)-1,3-dioxoisoindolin-5-yl)azetidin-3-yl)ethynyl)-1H-pyrazol-1-yl)-2-methylpropanamide] is < 0.05 µM. With `CCC(C)(C(=O)Nc1ccc(C#N)c(C(F)(F)F)c1)n1cc(C#CC2CN(c3ccc4c(c3)C(=O)N(C3CCC(=O)NC3=O)C4=O)C2)cn1` (stereo not drawn) [Compound 46, N-(4-cyano-3-(trifluoromethyl)phenyl)-2-(4-((1-(2-(2,6-dioxopiperidin-3-yl)-1,3-dioxoisoindolin-S-yl)azetidin-3-yl)ethynyl)-1H-pyrazol-1-yl)-2-methylbutanamide], under setting [1], the half-inhibitory concentration (IC50) is < 1 µM. For `CC(C)(C(=O)Nc1ccc(C(F)(F)F)cc1-c1ccccc1)n1cc(C#CC2CN(c3ccc4c(c3)C(=O)N(C3CCC(=O)NC3=O)C4=O)C2)cn1` (stereo not drawn) [Compound 112, 2-(4-((1-(2-(2,6-dioxopiperidin-3-yl)-1,3-dioxoisoindolin-5-yl)azetidin-3-yl)ethynyl)-1H-pyrazol-1-yl)-2-methyl-N-(5-(trifluoromethyl)-[1,1′-biphenyl]-2-yl) propanamide], the IC50 under setting [1] was < 1 µM. Consider `CC#Cc1cc(C(F)(F)F)ccc1NC(=O)C(C)(C)n1cc(C#CC2CN(c3ccc4c(c3)C(=O)N(C3CCC(=O)NC3=O)C4=O)C2)c(C)n1` (stereo not drawn) [Compound 193, 2-(4-((1-(2-(2,6-dioxopiperidin-3-yl)-1,3-dioxoisoindolin-5-yl)azetidin-3-yl)ethynyl)-3-methyl-1H-pyrazol-1-yl)-2-methyl-N-(2-(prop-1-yn-1-yl)-4-(trifluoromethyl)phenyl) propanamide], for which the IC50 under setting [2] is < 0.1 µM. The same measure, in the same setting: the figure for `CC#Cc1cc(C(F)(F)F)ccc1NC(=O)C(C)(C)n1nc(C)c(C#CC2CN(c3ccc4c(c3)C(=O)N(C3CCC(=O)NC3=O)C4=O)C2)c1C` (stereo not drawn) [Compound 192, 2-(4-((1-(2-(2,6-dioxopiperidin-3-yl)-1,3-dioxoisoindolin-5-yl)azetidin-3-yl)ethynyl)-3,5-dimethyl-1H-pyrazol-1-yl)-2-methyl-N-(2-(prop-1-yn-1-yl)-4-(trifluoromethyl)phenyl) propanamide] is < 0.1 µM.
